According to the supplement of paper PMC10307832:

Experiments:
Assay in all cases: relative viability (nuclei count vs DMSO), 5 days (fraction); higher = more cells survive
[1] = compound: C1=CC=C2C(=C1)N=C(S2)C(C#N)C3=NC(=NC=C3)NCCC4=CN=CC=C4 + CC(=O)c1c(C)c2cnc(Nc3ccc(N4CCNCC4)cn3)nc2n(C2CCCC2)c1=O [Palbociclib] (partner 0.5 µM)
How it was run: (§1)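 Nuclei were stained with Hoechst during a one-step fixation (final 0.05% Triton X-100, 1% formaldehyde, 1 ug/ml Hoechst) carried out 5 days after dosing, then counted on 4× images. The cells, lung cancer lines in 1536-well plates, had been dosed by pin tool the day after seeding with one drug alone or a fixed anchor-drug dose plus five library-drug doses (not always all listed) in √10 steps. Relative viability is the nuclei count in treated wells divided by that in vehicle wells, and each value is the median of duplicate plates.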

[2] = compound: C1=CC=C2C(=C1)N=C(S2)C(C#N)C3=NC(=NC=C3)NCCC4=CN=CC=C4 + C[C@@H](Oc1cc(-c2cnn(C3CCNCC3)c2)cnc1N)c1c(Cl)ccc(F)c1Cl [Crizotinib] (partner 1 µM)
How it was run: as §1

[3] = compound: C1=CC=C2C(=C1)N=C(S2)C(C#N)C3=NC(=NC=C3)NCCC4=CN=CC=C4 + C[C@]1(O)C[C@@H](c2nc(-c3ccc4ccc(-c5ccccc5)nc4c3)c3c(N)nccn32)C1 [Linsitinib] (partner 1 µM)
How it was run: as §1

[4] = compound: C1=CC=C2C(=C1)N=C(S2)C(C#N)C3=NC(=NC=C3)NCCC4=CN=CC=C4 + Cc1nc(NC(=O)N2CCC[C@H]2C(N)=O)sc1-c1ccnc(C(C)(C)C(F)(F)F)c1 [Alpelisib] (partner 2 µM)
How it was run: as §1

Cell Line | relative viability ([1]; first compound 0.005 µM) | relative viability ([1]; first compound 0.01581 µM) | relative viability ([1]; first compound 0.05 µM) | relative viability ([1]; first compound 0.1581 µM) | relative viability ([1]; first compound 0.5 µM) | relative viability ([2]; first compound 0.005 µM) | relative viability ([2]; first compound 0.01581 µM) | relative viability ([2]; first compound 0.05 µM) | relative viability ([2]; first compound 0.1581 µM) | relative viability ([2]; first compound 0.5 µM) | relative viability ([3]; first compound 0.005 µM) | relative viability ([3]; first compound 0.01581 µM) | relative viability ([3]; first compound 0.05 µM) | relative viability ([3]; first compound 0.1581 µM) | relative viability ([3]; first compound 0.5 µM) | relative viability ([4]; first compound 0.005 µM) | relative viability ([4]; first compound 0.01581 µM) | relative viability ([4]; first compound 0.05 µM) | relative viability ([4]; first compound 0.1581 µM) | relative viability ([4]; first compound 0.5 µM)
NCI-H1437 | 0.372 | 0.329 | 0.327 | 0.312 | 0.304 | 0.66 | 1.09 | 0.932 | 1.09 | 0.679 | 0.789 | 1.23 | 1.09 | 1.11 | 0.692 | 0.797 | 1.11 | 0.962 | 1.09 | 0.695
NCI-H1651 | 0.473 | 0.518 | 0.535 | 0.539 | 0.504 | 0.746 | 0.883 | 0.855 | 0.864 | 0.849 | 0.695 | 0.846 | 1 | 1.18 | 0.921 | 0.667 | 1.07 | 1.12 | 1.11 | 0.73
NCI-H1666 | 0.64 | 0.654 | 0.632 | 0.631 | 0.657 | 1.07 | 0.975 | 1.01 | 1 | 0.907 | 0.81 | 0.846 | 0.722 | 0.91 | 0.766 | 0.915 | 0.971 | 0.876 | 1.11 | 0.892
NCI-H1734 | 0.303 | 0.313 | 0.307 | 0.355 | 0.33 | 0.555 | 0.734 | 0.684 | 0.693 | 0.741 | 0.779 | 0.939 | 0.881 | 0.946 | 0.797 | 0.695 | 0.729 | 0.518 | 0.726 | 0.714
NCI-H1755 | 0.431 | 0.44 | 0.481 | 0.5 | 0.644 | 0.809 | 0.964 | 0.844 | 1.02 | 0.831 | 0.968 | 1.05 | 0.976 | 1.07 | 0.908 | 0.839 | 1 | 0.959 | 1.03 | 0.849
NCI-H1792 | 0.473 | 0.732 | 0.622 | 0.995 | 0.474 | – | 1.08 | 0.997 | 1.33 | 0.616 | – | 0.711 | 0.537 | 0.495 | 0.39 | – | 0.817 | 0.696 | 0.891 | 0.517
NCI-H1915 | – | 0.532 | 0.498 | 0.569 | 0.523 | 0.718 | 0.955 | 0.928 | 0.994 | 0.565 | 1.08 | 1.09 | 1.09 | 1.18 | 1.13 | 0.997 | 1.05 | 1.04 | 1.12 | 1.05
NCI-H1944 | 0.314 | 0.373 | 0.293 | 0.32 | 0.318 | 1.15 | 1.18 | 1.02 | 1.12 | 1.1 | 1.09 | 1.25 | 1.2 | 1.34 | 1.2 | 0.799 | 0.86 | 0.771 | 0.835 | 0.803
NCI-H1975 | 0.565 | 0.538 | 0.656 | 0.832 | 0.408 | 0.766 | 1.18 | 0.954 | 1.14 | 0.667 | 0.823 | 1.07 | 0.972 | 1.07 | 0.738 | 0.352 | 0.669 | 0.62 | 0.668 | 0.403
NCI-H1993 | 0.651 | 0.64 | 0.699 | 0.708 | 0.694 | 0.684 | 0.844 | 0.762 | 0.94 | 0.832 | 0.861 | 0.784 | 0.749 | 0.749 | 0.681 | 0.671 | 0.692 | 0.645 | 0.652 | 0.747
NCI-H2009 | 0.223 | 0.168 | 0.215 | 0.229 | 0.206 | 1 | 0.991 | 0.97 | 1.08 | 0.976 | 1.15 | 1.22 | 1.22 | 1.25 | 1.07 | 1.13 | 1.22 | 1.18 | 1.16 | 1.12
NCI-H2023 | 0.328 | 0.309 | 0.394 | 0.383 | 0.332 | 0.592 | 0.568 | 0.604 | 0.706 | 0.483 | 0.743 | 0.695 | 0.68 | 0.671 | 0.701 | 0.625 | 0.659 | 0.649 | 0.681 | 0.404
